From ChEMBL document CHEMBL3632577, “Lead optimization of the VU0486321 series of mGlu1 PAMs. Part 1: SAR of modifications to the central aryl core” (Bioorg Med Chem Lett, 2015)
pEC50: −log10 of the molar value.

Legend:
Homo sapiens = species on record: Homo sapiens; test: Selectivity ratio of EC50 for human mGluR4 to EC50 for human mGluR1
[1] = target: T1, Metabotropic glutamate receptor 4 (Homo sapiens, UniProt Q14833); test: Positive allosteric modulation of human mGluR4 by calcium mobilization assay relative to PHCCC; type: functional
T1 sequence (Q14833 whole entry): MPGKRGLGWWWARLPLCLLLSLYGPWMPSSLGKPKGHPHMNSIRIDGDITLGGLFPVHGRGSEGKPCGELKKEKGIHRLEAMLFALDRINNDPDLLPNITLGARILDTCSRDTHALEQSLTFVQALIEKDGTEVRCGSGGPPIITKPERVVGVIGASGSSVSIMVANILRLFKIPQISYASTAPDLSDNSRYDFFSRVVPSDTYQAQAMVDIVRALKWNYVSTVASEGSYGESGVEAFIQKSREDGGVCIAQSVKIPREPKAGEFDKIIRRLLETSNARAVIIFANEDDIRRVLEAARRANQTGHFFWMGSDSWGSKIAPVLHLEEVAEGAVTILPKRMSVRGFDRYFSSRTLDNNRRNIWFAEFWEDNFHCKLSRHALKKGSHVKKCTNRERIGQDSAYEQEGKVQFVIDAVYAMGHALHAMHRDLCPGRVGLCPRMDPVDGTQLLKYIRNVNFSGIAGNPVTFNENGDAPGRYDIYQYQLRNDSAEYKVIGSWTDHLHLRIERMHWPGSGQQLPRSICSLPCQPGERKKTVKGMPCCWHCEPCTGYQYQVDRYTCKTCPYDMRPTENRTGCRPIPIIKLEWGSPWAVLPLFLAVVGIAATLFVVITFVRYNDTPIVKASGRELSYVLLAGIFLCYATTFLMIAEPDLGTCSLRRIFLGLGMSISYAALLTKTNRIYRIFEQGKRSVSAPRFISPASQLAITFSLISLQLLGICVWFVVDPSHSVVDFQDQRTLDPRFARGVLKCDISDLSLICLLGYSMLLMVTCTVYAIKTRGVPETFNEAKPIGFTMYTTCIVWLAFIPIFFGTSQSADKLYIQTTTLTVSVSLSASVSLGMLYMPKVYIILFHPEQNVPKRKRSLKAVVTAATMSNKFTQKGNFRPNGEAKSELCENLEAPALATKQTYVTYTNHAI

[2] = target: T1, Metabotropic glutamate receptor 4; test: Positive allosteric modulation of human mGluR4 by calcium mobilization assay; type: functional
[3] = target: T2, Metabotropic glutamate receptor 1 (Homo sapiens, UniProt Q13255); test: Positive allosteric modulation of human mGluR1 by calcium mobilization assay; type: functional
Target sequence in this assay (Q13255 whole entry): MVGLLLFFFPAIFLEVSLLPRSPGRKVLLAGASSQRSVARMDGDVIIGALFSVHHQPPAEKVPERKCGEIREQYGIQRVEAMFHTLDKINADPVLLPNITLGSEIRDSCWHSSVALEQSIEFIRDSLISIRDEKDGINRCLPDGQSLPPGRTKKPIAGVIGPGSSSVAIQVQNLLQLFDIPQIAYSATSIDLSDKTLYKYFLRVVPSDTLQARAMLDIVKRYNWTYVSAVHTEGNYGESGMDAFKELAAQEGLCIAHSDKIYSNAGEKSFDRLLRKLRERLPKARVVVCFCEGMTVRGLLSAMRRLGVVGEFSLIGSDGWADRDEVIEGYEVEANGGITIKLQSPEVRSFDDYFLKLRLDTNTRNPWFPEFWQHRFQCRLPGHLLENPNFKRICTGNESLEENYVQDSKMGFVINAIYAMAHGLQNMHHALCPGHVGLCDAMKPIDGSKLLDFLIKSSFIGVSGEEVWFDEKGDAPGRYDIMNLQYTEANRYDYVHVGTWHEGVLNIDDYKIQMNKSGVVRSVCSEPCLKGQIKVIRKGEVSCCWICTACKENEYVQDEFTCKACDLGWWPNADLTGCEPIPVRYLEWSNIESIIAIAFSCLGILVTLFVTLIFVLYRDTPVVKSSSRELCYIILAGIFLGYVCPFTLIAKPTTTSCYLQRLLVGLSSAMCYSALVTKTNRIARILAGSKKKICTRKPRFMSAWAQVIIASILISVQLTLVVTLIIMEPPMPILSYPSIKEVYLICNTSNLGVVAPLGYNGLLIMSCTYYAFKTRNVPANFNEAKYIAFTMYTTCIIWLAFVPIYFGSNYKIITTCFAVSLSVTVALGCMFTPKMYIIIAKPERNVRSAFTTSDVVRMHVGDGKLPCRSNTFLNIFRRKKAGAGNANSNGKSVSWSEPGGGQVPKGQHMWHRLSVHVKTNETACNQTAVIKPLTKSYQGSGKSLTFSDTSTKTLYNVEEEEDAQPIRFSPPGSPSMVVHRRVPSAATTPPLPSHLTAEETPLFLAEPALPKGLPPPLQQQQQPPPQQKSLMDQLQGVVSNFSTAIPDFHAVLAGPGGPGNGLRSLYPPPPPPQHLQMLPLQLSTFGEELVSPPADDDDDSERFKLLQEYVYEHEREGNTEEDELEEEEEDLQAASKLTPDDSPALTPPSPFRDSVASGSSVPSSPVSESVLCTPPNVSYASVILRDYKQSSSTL

[4] = target: T2, Metabotropic glutamate receptor 1; test: Positive allosteric modulation of human mGluR1 by calcium mobilization assay relative to control; type: functional
Target sequence in this assay (Q13255 19-1194 limits assumed): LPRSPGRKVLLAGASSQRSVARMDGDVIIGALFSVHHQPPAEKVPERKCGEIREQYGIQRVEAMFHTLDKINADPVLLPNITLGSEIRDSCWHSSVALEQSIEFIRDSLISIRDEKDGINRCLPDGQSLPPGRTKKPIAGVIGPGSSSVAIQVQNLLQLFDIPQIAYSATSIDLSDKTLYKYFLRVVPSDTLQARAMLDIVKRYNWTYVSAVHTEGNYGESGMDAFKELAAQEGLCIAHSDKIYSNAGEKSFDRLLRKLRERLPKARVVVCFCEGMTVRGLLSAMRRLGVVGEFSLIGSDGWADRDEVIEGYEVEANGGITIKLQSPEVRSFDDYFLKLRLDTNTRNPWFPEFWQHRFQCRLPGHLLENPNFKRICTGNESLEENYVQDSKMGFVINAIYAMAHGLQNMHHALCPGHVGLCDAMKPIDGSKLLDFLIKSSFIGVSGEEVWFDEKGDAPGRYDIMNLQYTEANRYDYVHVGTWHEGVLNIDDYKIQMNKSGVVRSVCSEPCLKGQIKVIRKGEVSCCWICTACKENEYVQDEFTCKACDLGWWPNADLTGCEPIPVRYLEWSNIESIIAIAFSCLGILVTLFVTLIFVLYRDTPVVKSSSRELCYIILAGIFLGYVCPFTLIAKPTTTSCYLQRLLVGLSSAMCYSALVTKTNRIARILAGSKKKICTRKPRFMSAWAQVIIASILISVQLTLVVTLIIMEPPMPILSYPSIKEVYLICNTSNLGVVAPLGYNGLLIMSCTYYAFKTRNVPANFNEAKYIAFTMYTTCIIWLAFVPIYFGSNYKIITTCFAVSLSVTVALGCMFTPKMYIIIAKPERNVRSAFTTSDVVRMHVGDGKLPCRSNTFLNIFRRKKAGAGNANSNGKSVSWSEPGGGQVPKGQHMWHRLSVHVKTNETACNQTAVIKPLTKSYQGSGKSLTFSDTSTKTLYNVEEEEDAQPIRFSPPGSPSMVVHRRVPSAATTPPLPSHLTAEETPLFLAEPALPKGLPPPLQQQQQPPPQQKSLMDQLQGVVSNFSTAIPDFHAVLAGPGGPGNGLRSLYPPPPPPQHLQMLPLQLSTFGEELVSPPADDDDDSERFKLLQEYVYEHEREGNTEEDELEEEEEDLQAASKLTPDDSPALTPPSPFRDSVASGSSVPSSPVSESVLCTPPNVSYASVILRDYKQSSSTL

## COc1cc(NC(=O)c2occc2C)ccc1N1C(=O)c2cccc(F)c2C1=O
Homo sapiens
  Ratio EC50: 13.4
[1]
  %max: 73%
[2]
  pEC50: 5.71
[3]
  pEC50: 6.84
[3]; read-out: EC50
  pEC50: 6.84
[4]
  %max: 103%

## Cc1ccoc1C(=O)Nc1ccc(N2C(=O)c3cccc(F)c3C2=O)cc1
Homo sapiens
  Ratio EC50: 8.6
[1]
  %max: 34%
[2]
  pEC50: 6.42
[3]
  pEC50: 7.36
[3]; read-out: EC50
  pEC50: 7.36
[4]
  %max: 96%

## Cc1ccoc1C(=O)Nc1ccc(N2C(=O)c3ccccc3C2=O)nc1
[2]
  pEC50: < 5.00
[3]
  pEC50: 6.41
[3]; read-out: EC50
  pEC50: 6.41
[4]
  %max: 80%

## Cc1ccoc1C(=O)Nc1ccc(N2C(=O)c3cccc(F)c3C2=O)nc1
Homo sapiens
  Ratio EC50: 17.9
[1]
  %max: 19%
[2]
  pEC50: 5.45
[3]
  pEC50: 6.70
[3]; read-out: EC50
  pEC50: 6.70
[4]
  %max: 93%

## Cc1ccoc1C(=O)Nc1ccc(N2C(=O)c3cccc(F)c3C2=O)c(F)c1
Homo sapiens
  Ratio EC50: 19.3
[1]
  %max: 78%
[2]
  pEC50: 6.17
[3]
  pEC50: 7.46
[3]; read-out: EC50
  pEC50: 7.46
[4]
  %max: 104%

## Cc1cc(NC(=O)c2occc2C)ccc1N1C(=O)c2cccc(C)c2C1=O
Homo sapiens
  Ratio EC50: 19.8
[1]
  %max: 122%
[2]
  pEC50: 6.37
[3]
  pEC50: 7.67
[3]; read-out: EC50
  pEC50: 7.68
[4]
  %max: 100%

## Cc1ccoc1C(=O)Nc1ccc(N2C(=O)c3cccc(F)c3C2=O)c2ccccc12
Homo sapiens
  Ratio EC50: 41.1
[1]
  %max: 83%
[2]
  pEC50: 6.09
[3]
  pEC50: 7.71
[3]; read-out: EC50
  pEC50: 7.70
[4]
  %max: 90%

## Cc1cc(NC(=O)c2occc2C)ccc1N1C(=O)c2cccc(Cl)c2C1=O
Homo sapiens
  Ratio EC50: 20.5
[1]
  %max: 127%
[2]
  pEC50: 6.00
[3]
  pEC50: 7.31
[3]; read-out: EC50
  pEC50: 7.31
[4]
  %max: 117%

## Cc1ccoc1C(=O)Nc1ncc(N2C(=O)c3ccccc3C2=O)cn1
[2]
  pEC50: < 5.00
[3]
  pEC50: < 5.00
[3]; read-out: EC50
  pEC50: < 5.00

## Cc1cc(NC(=O)c2occc2C)ccc1N1C(=O)c2ccccc2C1=O
Homo sapiens
  Ratio EC50: 9.9
[1]
  %max: 75%
[2]
  pEC50: 6.05
[3]
  pEC50: 7.05
[3]; read-out: EC50
  pEC50: 7.05
[4]
  %max: 105%

## Cc1ccoc1C(=O)Nc1ccc(N2C(=O)c3ccccc3C2=O)c(F)c1
Homo sapiens
  Ratio EC50: 11.9
[1]
  %max: 65%
[2]
  pEC50: 6.58
[3]
  pEC50: 7.65
[3]; read-out: EC50
  pEC50: 7.66
[4]
  %max: 101%

## Cc1ccoc1C(=O)Nc1ccc(N2C(=O)c3cccc(Cl)c3C2=O)nc1
Homo sapiens
  Ratio EC50: 31.9
[1]
  %max: 44%
[2]
  pEC50: 5.95
[3]
  pEC50: 7.46
[3]; read-out: EC50
  pEC50: 7.46
[4]
  %max: 91%

## Cc1ccoc1C(=O)Nc1ccc(N2C(=O)c3cccc(F)c3C2=O)c(C(F)(F)F)c1
Homo sapiens
  Ratio EC50: 18.5
[1]
  %max: 80%
[2]
  pEC50: 5.54
[3]
  pEC50: 6.81
[3]; read-out: EC50
  pEC50: 6.81
[4]
  %max: 110%

## COc1cc(NC(=O)c2occc2C)ccc1N1C(=O)c2cccc(Cl)c2C1=O
Homo sapiens
  Ratio EC50: 36.1
[1]
  %max: 103%
[2]
  pEC50: 6.19
[3]
  pEC50: 7.74
[3]; read-out: EC50
  pEC50: 7.74
[4]
  %max: 93%

## Cc1ccoc1C(=O)Nc1ccc(N2C(=O)c3cccc(Cl)c3C2=O)cc1
Homo sapiens
  Ratio EC50: 16.7
[1]
  %max: 35%
[2]
  pEC50: 6.32
[3]
  pEC50: 7.54
[3]; read-out: EC50
  pEC50: 7.54
[4]
  %max: 101%

## Cc1ccoc1C(=O)Nc1ccc(N2C(=O)c3ccccc3C2=O)c2ccccc12
Homo sapiens
  Ratio EC50: 17.4
[1]
  %max: 54%
[2]
  pEC50: 6.45
[3]
  pEC50: 7.69
[3]; read-out: EC50
  pEC50: 7.70
[4]
  %max: 99%

## Cc1ccoc1C(=O)Nc1ccc(N2C(=O)c3ccccc3C2=O)cc1C(F)(F)F
[2]
  pEC50: < 5.00
[3]
  pEC50: < 5.00
[3]; read-out: EC50
  pEC50: < 5.00

## Cc1ccoc1C(=O)Nc1cnc(N2C(=O)c3cccc(F)c3C2=O)nc1
[1]
  %max: 24%
[2]
  pEC50: < 5.00
[3]
  pEC50: 5.27
[3]; read-out: EC50
  pEC50: 5.27
[4]
  %max: 99%

## Cc1ccoc1C(=O)Nc1ccc(N2C(=O)c3cccc(Cl)c3C2=O)c(F)c1
Homo sapiens
  Ratio EC50: 9.5
[1]
  %max: 93%
[2]
  pEC50: 6.58
[3]
  pEC50: 7.56
[3]; read-out: EC50
  pEC50: 7.55
[4]
  %max: 100%

## Cc1ccoc1C(=O)Nc1ccc(N2C(=O)c3ccccc3C2=O)c(C(F)(F)F)c1
Homo sapiens
  Ratio EC50: 54.1
[1]
  %max: 86%
[2]
  pEC50: 5.18
[3]
  pEC50: 6.91
[3]; read-out: EC50
  pEC50: 6.91
[4]
  %max: 108%

## Cc1ccoc1C(=O)Nc1ccc(N2C(=O)c3cccc(C)c3C2=O)c2ccccc12
Homo sapiens
  Ratio EC50: 27.3
[1]
  %max: 103%
[2]
  pEC50: 6.37
[3]
  pEC50: 7.80
[3]; read-out: EC50
  pEC50: 7.80
[4]
  %max: 88%

## COc1cc(N2C(=O)c3ccccc3C2=O)ccc1NC(=O)c1occc1C
[2]
  pEC50: < 5.00
[3]
  pEC50: 6.48
[3]; read-out: EC50
  pEC50: 6.48
[4]
  %max: 80%

## Cc1ccoc1C(=O)Nc1ccc(N2C(=O)c3cccc(Cl)c3C2=O)c2ccccc12
Homo sapiens
  Ratio EC50: 22.8
[1]
  %max: 102%
[2]
  pEC50: 6.29
[3]
  pEC50: 7.65
[3]; read-out: EC50
  pEC50: 7.64
[4]
  %max: 92%

## Cc1cc(N2C(=O)c3ccccc3C2=O)ccc1NC(=O)c1occc1C
Homo sapiens
  Ratio EC50: 40.6
[1]
  %max: 52%
[2]
  pEC50: 6.22
[3]
  pEC50: 7.82
[3]; read-out: EC50
  pEC50: 7.82
[4]
  %max: 90%

## Cc1ccoc1C(=O)Nc1ccc(N2C(=O)c3ccccc3C2=O)cn1
[2]
  pEC50: < 5.00
[3]
  pEC50: < 5.00
[3]; read-out: EC50
  pEC50: < 5.00

## Cc1ccoc1C(=O)Nc1ccc(N2C(=O)c3ccccc3C2=O)cc1
[2]
  pEC50: < 5.00
[3]
  pEC50: 7.32
[3]; read-out: EC50
  pEC50: 7.32
[4]
  %max: 82%

## Cc1ccoc1C(=O)Nc1cnc(N2C(=O)c3cccc(Cl)c3C2=O)nc1
Homo sapiens
  Ratio EC50: 12.2
[1]
  %max: 45%
[2]
  pEC50: 5.60
[3]
  pEC50: 6.68
[3]; read-out: EC50
  pEC50: 6.68
[4]
  %max: 84%

## Cc1ccoc1C(=O)Nc1ccc(N2C(=O)c3cccc(Cl)c3C2=O)c(C(F)(F)F)c1
Homo sapiens
  Ratio EC50: 23.3
[1]
  %max: 120%
[2]
  pEC50: 5.61
[3]
  pEC50: 6.98
[3]; read-out: EC50
  pEC50: 6.97
[4]
  %max: 105%

## Cc1ccoc1C(=O)Nc1ccc(N2C(=O)c3cccc(C)c3C2=O)c(F)c1
Homo sapiens
  Ratio EC50: 11
[1]
  %max: 102%
[2]
  pEC50: 6.54
[3]
  pEC50: 7.58
[3]; read-out: EC50
  pEC50: 7.59
[4]
  %max: 107%

## Cc1ccoc1C(=O)Nc1cnc(N2C(=O)c3ccccc3C2=O)nc1
Homo sapiens
  Ratio EC50: 1.01
[1]
  %max: 23%
[2]
  pEC50: 5.33
[3]
  pEC50: 5.33
[3]; read-out: EC50
  pEC50: 5.34
[4]
  %max: 89%

## COc1cc(NC(=O)c2occc2C)ccc1N1C(=O)c2cccc(C)c2C1=O
Homo sapiens
  Ratio EC50: 18
[1]
  %max: 107%
[2]
  pEC50: 6.05
[3]
  pEC50: 7.31
[3]; read-out: EC50
  pEC50: 7.31
[4]
  %max: 94%

## Cc1ccoc1C(=O)Nc1ccc(N2C(=O)c3cccc(C)c3C2=O)cc1
Homo sapiens
  Ratio EC50: 21.7
[1]
  %max: 62%
[2]
  pEC50: 6.46
[3]
  pEC50: 7.79
[3]; read-out: EC50
  pEC50: 7.80
[4]
  %max: 108%

## Cc1ccoc1C(=O)Nc1ccc(N2C(=O)c3cccc(C)c3C2=O)nc1
Homo sapiens
  Ratio EC50: 52.7
[1]
  %max: 100%
[2]
  pEC50: 5.30
[3]
  pEC50: 7.02
[3]; read-out: EC50
  pEC50: 7.02
[4]
  %max: 105%

## Cc1cc(NC(=O)c2occc2C)ccc1N1C(=O)c2cccc(F)c2C1=O
Homo sapiens
  Ratio EC50: 22.4
[1]
  %max: 86%
[2]
  pEC50: 5.96
[3]
  pEC50: 7.31
[3]; read-out: EC50
  pEC50: 7.31
[4]
  %max: 95%

## Cc1ccoc1C(=O)Nc1cnc(N2C(=O)c3cccc(C)c3C2=O)nc1
Homo sapiens
  Ratio EC50: 5.95
[1]
  %max: 104%
[2]
  pEC50: 5.35
[3]
  pEC50: 6.12
[3]; read-out: EC50
  pEC50: 6.12
[4]
  %max: 111%
